Data set [1] in a line: Flow property measurement of powder (bulk density, tapped density, Hausner ratio, Carr's index). It counts as physicochemical. Conditions: for Carr's index: (tapped density-bulk density)/tapped density×100; for Tapped density: after mechanical tapping; for Hausner ratio: calculated from bulk and tapped density; for Bulk density: untapped powder sample. An excerpt: (§1) As per the flow property measurement, powder obtained by reactive agglomeration has better flow indices (Carr's index and Hausner ratio) than powder obtained by solvent-antisolvent process, disclosed in example 24 of WO2017212431.
The term “bulk density” as used herein refers to the ratio of the mass to the volume (including the interparticulate void volume) of an untapped powder sample.
The term “tapped density” as used herein and it is obtained by mechanically tapping a graduated cylinder containing the sample until little further volume change is observed.
The tapping can be performed using different methods. The tapped density is calculated as mass divided by the final volume of the powder.
The term “carr's index” as used herein and it is calculated using below formula Carr Index =(tapped density-bulk density)/tapped density×100.
The term “hausner ratio” as used herein and it is calculated using below formula Hausner Ratio […]

A short description of data set [2]: Filtration characteristics (specific cake resistance). It counts as physicochemical. Conditions: filtration of the suspension from the process.
Excerpt: as §1
The term “specific cake resistance” as used herein refers to filter cake is formed by the substances that are retained on a filter. The filter cake grows in the course of filtration, becoming thicker as particulate matter is retained. With increasing layer thickness, the flow resistance of the filter cake increases. Specific cake resistance is a measure of this resistance offered by cake towards the flow.

`CC1(C)CCC(CN2CCN(c3ccc(C(=O)NS(=O)(=O)c4ccc(NCC5CCOCC5)c([N+](=O)[O-])c4)c(Oc4cnc5[nH]ccc5c4)c3)CC2)=C(c2ccc(Cl)cc2)C1` [Amorphous venetoclax obtained by Solvent-Anti solvent Proces] [4-(4-{[2-(4-chlorophenyl)-4,4dimethylcyclohex-1-en-1-yl]methyl}piperazin-1-yl)-N-({3-nitro-4-[(tetrahydro-2H-pyran-4ylmethyl)amino]phenyl}sulfonyl)-2-(1H-pyrrolo[2,3-1)]pyridin-5-yloxy)benzamide)]: in data set [1], the “Carr's index” value worked out at 29.8, the Tapped density came out at 0.289 g/mL, the Hausner ratio is 1.4 and the Bulk density came to 0.203 g/mL. Also, the Specific cake resistance entry in data set [2] is “Filter media clogged”.

For `CC1(C)CCC(CN2CCN(c3ccc(C(=O)NS(=O)(=O)c4ccc(NCC5CCOCC5)c([N+](=O)[O-])c4)c(Oc4cnc5[nH]ccc5c4)c3)CC2)=C(c2ccc(Cl)cc2)C1` [Amorphous venetoclax obtained by reactive agglomeration proc] [4-(4-{[2-(4-chlorophenyl)-4,4dimethylcyclohex-1-en-1-yl]methyl}piperazin-1-yl)-N-({3-nitro-4-[(tetrahydro-2H-pyran-4ylmethyl)amino]phenyl}sulfonyl)-2-(1H-pyrrolo[2,3-1)]pyridin-5-yloxy)benzamide)], in data set [1], the “Carr's index” value worked out at 25.8, the Tapped density stood at 0.442 g/mL, the Hausner ratio is on record as 1.3 and the Bulk density stood at 0.328 g/mL. This compound displayed a Specific cake resistance in data set [2] of 2.73E+10 m/Kg.

Values taken from US20220251080A1, “SUBSTANTIALLY PURE VENETOCLAX AND AMORPHOUS VENETOCLAX IN A FREE DRUG PARTICULAT E FORM” (DR. REDDY'S LABORATORIES LIMITED, priority 2019, published 2022).
